Data taken from patent USRE49735E1 (BRISTOL-MYERS SQUIBB COMPANY, priority 2010, dated 2023).
“And” between values parts separate entries of the source, which are not always exact repeats. Identical values can stand only once.

Molecular target: human mGluR5A (Homo sapiens, UniProt P41594)
Test: mGluR5 FLIPR Assay
Format: cell-based
Conditions: positive modulator activity; HEK293 (ZF) cells with human mGluR5A and rat GLAST; Ca++ response to ~EC10 glutamate

Chain of human mGluR5A (P41594 21-1180 isoform P41594-2): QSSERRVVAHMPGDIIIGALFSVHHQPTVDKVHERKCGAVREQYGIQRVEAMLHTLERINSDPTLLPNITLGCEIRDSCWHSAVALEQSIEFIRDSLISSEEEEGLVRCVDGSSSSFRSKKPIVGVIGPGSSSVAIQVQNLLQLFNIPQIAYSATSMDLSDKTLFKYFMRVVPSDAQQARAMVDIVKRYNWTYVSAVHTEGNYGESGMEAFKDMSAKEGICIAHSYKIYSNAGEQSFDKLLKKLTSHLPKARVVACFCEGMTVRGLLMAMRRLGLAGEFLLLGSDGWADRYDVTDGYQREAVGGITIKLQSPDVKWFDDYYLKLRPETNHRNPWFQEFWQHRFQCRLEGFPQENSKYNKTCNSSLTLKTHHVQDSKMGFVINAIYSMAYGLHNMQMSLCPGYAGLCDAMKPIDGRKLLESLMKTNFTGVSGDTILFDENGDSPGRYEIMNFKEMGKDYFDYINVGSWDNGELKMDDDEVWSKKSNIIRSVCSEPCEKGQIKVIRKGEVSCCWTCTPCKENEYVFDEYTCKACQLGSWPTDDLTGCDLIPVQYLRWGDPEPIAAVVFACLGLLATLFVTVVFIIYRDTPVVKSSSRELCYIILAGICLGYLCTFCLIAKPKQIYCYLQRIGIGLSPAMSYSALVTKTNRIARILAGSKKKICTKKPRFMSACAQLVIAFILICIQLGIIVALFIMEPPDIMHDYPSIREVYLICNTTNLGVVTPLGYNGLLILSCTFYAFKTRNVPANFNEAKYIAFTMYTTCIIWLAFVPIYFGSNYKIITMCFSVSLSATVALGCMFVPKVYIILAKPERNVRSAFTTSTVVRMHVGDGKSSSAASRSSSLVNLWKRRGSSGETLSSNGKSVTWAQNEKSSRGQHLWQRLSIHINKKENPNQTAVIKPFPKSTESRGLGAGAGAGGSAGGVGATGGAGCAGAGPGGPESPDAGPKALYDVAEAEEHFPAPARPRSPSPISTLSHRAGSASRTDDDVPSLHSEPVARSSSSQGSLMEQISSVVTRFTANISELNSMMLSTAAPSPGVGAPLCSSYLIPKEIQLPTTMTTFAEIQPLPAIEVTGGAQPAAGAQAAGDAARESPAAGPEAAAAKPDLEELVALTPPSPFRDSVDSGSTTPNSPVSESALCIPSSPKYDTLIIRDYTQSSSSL

Structure (SMILES): COc1cccc([C@H]2OC(=O)N[C@@H]2c2cccc(C#Cc3cccc(O)n3)c2)c1 [Example 77, (4R,5R)-4-(3-((6-Hydroxypyridin-2-yl)ethnyl)phenyl)-5-(3-methoxyphenyl)-oxazolidin-2-one]
- EC50: > 1000 nM

Structure (SMILES): O=C1N[C@@H](c2cccc(C#Cc3cccnc3)c2)[C@H](c2ccncc2)O1 [Example 236]
- EC50: > 1000 nM

Structure (SMILES): O=C1N[C@H](c2cc(C#Cc3ccccc3)ncc2F)[C@@H](c2ccccc2F)O1 [Example 304, (4R,5R)-4-(5-Fluoro-2-(phenylethynyl)pyridin-4-yl)-5-(2-fluorophenyl)oxazolidin-2-one]
- EC50: < 100 nM

Structure (SMILES): O=C1N[C@H](c2cc(C#Cc3cccnc3)cnc2F)[C@@H](c2cccc(F)c2)O1 [Example 139, (4R,5R)-4-(2-Fluoro-5-(pyridin-3-ylethynyl)pyridin-3-yl)-5-(3-fluorophenyl)oxazolidin-2-one]
- EC50: < 100 nM

Structure (SMILES): O=C1N[C@@H](c2ccnc(C#Cc3ccccc3)n2)[C@H](c2cccc(F)c2)O1 [Example 276]
- EC50: 100 to 1000 nM and 468 nM

Structure (SMILES): O=C1N[C@H](c2ccnc(C#Cc3ccccc3)n2)[C@@H](c2cc(F)ccc2F)O1 (racemic) [Example 270]
- EC50: > 1000 nM

Structure (SMILES): O=C1N[C@H](c2cncc(C#Cc3cccnc3)c2)[C@@H](c2cccc(F)c2)O1 [Example 35, (4R,5R)-5-(3-Fluorophenyl)-4-(5-(pyridin-3-ylethynyl)pyridin-3-yl)oxazolidin-2-one]
- EC50: < 100 nM and 6.3 nM

Structure (SMILES): O=C1N[C@H](c2cccc(C#Cc3ccccc3)c2)[C@@H](c2cccc(F)c2)O1 (racemic) [Example 111, Trans-5-(3-fluorophenyl)-4-(3-(phenylethynyl)phenyl)oxazolidin-2-one]
- EC50: < 100 nM

Structure (SMILES): O=C1N[C@H](c2cncc(C#Cc3cncc(F)c3)c2)[C@@H](c2ccc(F)cc2F)O1 [Example 182]
- EC50: < 100 nM

Structure (SMILES): O=C1N[C@H](c2cc(C#Cc3ccccc3)ncn2)[C@@H](c2cccc(F)c2)O1 (racemic) [Example 271]
- EC50: > 1000 nM

Structure (SMILES): COc1cccc([C@H]2OC(=O)N[C@@H]2c2cccc(C#Cc3cccnc3Cl)c2)c1 [Example 85, (4R,5R)-4-(3-((2-Chloropyridin-3-yl)ethynyl)phenyl)-5-(3-methoxyphenyl)oxazolidin-2-one]
- EC50: > 1000 nM

Structure (SMILES): O=C1N[C@@H](c2cncc(C#Cc3ccccc3)c2)[C@H](c2ccccc2Cl)O1 (single isomer, unassigned) [Example 363]
- EC50: < 100 nM

Structure (SMILES): O=C1N[C@@H](c2cccc(C#Cc3ccccc3)n2)[C@H](c2ccccc2F)O1 (single isomer, unassigned) [Example 308]
- EC50: > 1000 nM

Structure (SMILES): O=C1N[C@H](c2cccc(C#Cc3ccccc3)n2)[C@@H](c2cccc(F)c2)O1 [Example 217]
- EC50: < 100 nM

Structure (SMILES): COc1cccc([C@H]2OC(=O)N[C@@H]2c2cccc(C#Cc3cncc(C#N)c3)c2)c1 [Example 80, 5-((3-((4R,5R)-5-(3-Methoxyphenyl)-2-oxooxazolidin-4yl)-phenyl)ethynyl)nicotinonitrile]
- EC50: < 100 nM

Structure (SMILES): O=C1N[C@@H](c2cccc(C#Cc3cccc(F)c3)n2)[C@H](c2ccc(F)cc2F)O1 (single isomer, unassigned) [Example 312]
- EC50: > 3000 nM

Structure (SMILES): O=C1N[C@H](c2cncc(C#Cc3ccccc3)c2)[C@@H](c2cccc(Cl)c2Cl)O1 (single isomer, unassigned) [Example 330]
- EC50: < 100 nM

Structure (SMILES): O=C1N[C@H](c2cncc(C#Cc3ccccc3)c2)[C@@H](c2ccccc2)O1 (single isomer, unassigned) [Example 38]
- EC50: > 1000 nM

Structure (SMILES): COc1cccc([C@H]2OC(=O)N[C@@H]2c2cccc(C#Cc3cccc(F)n3)c2)c1 [Example 72, (4R,5R)-4-(3-((6-Fluoropyridin-2-yl)ethnyl)phenyl)-5-(3-methoxyphenyl)oxazolidin-2-one]
- EC50: < 100 nM

Structure (SMILES): O=C1N[C@@H](c2cncc(C#Cc3ccccc3)c2)[C@H](c2cccc(Cl)c2)O1 (single isomer, unassigned) [Example 361]
- EC50: > 1000 nM

Structure (SMILES): COc1cccc([C@H]2OC(=O)N[C@@H]2c2cccc(C#Cc3ccc(Cl)nc3)c2)c1 [Example 82, (4R,5R)-4-(3-((6-Chloropyridin-3-yl)ethynyl)phenyl)-5-(3-methoxyphenyl)oxazolidin-2-one]
- EC50: 100 to 1000 nM

Structure (SMILES): O=C1N[C@H](c2cccc(C#Cc3ccccc3)c2)[C@@H](c2nnn[nH]2)O1 [Example 168, (4R,5S)-4-(3-(Phenylethynyl)phenyl)-5-(1H-tetrazol-5-yl)oxazolidin-2-one]
- EC50: > 1000 nM

Structure (SMILES): O=C1N[C@H](c2cncc(C#Cc3cccnc3)c2)[C@@H](c2cc(F)cc(F)c2)O1 [Example 181]
- EC50: 100 to 1000 nM and 279 nM

Structure (SMILES): COc1cccc([C@H]2OC(=O)N[C@@H]2c2cccc(C#Cc3ccc(F)cc3F)c2)c1 [Example 127, (4R,5R)-4-(3-((2,4-difluorophenyl)ethynyl)phenyl)-5-(3-methoxyphenyl)oxazolidin-2-one]
- EC50: 100 to 1000 nM

Structure (SMILES): O=C1N[C@@H](c2cc(C#Cc3ccccc3F)ccn2)[C@H](c2ccc(F)cc2)O1 (single isomer, unassigned) [Example 354]
- EC50: 100 to 1000 nM and 392 nM

Structure (SMILES): COc1cccc([C@@H]2OC(=O)N[C@H]2c2cncc(C#Cc3csc(C)n3)c2)c1 (single isomer, unassigned) [Example 30]
- EC50: > 1000 nM

Structure (SMILES): O=C1N[C@H](c2cncc(C#Cc3ccccc3)c2)[C@H](c2ccnnc2)O1 (single isomer, unassigned) [Example 324]
- EC50: < 100 nM

Structure (SMILES): N#Cc1cccc(C#Cc2cc([C@H]3NC(=O)O[C@@H]3c3cccnc3)ccn2)c1 [Example 255]
- EC50: > 1000 nM

Structure (SMILES): O=C1N[C@@H](c2cccc(C#Cc3ccccc3)c2)[C@H](c2cccnn2)O1 [Example 242]
- EC50: > 1000 nM

Structure (SMILES): COc1cccc([C@H]2OC(=O)N[C@@H]2c2cccc(C#Cc3cnc4ccccc4c3)c2)c1 [Example 76, (4R,5R)-5-(3-Methoxyphenyl)-4-(3-(quinolin-3-ylethynyl)phenyl)oxazolidin-2-one]
- EC50: > 30000 nM

Structure (SMILES): O=C1NC(c2cccc(C#Cc3ncccc3F)n2)C(c2ccc(F)cc2)O1 (single isomer, unassigned) [Example 371]
- EC50: > 1000 nM

Structure (SMILES): Cc1cccc(C#Cc2cncc([C@H]3NC(=O)O[C@@H]3c3cccc(F)c3)c2)c1 [Example 401, (4R,5R)-5-(3-fluorophenyl)-4-(5-(m-tolylethynyl)pyridin-3-yl)oxazolidin-2-one]
- EC50: < 100 nM

Structure (SMILES): COc1cccc([C@H]2OC(=O)N[C@@H]2c2cccc(C#Cc3cnccc3Cl)c2)c1 [Example 84, (4R,5R)-4-(3-((4-Chloropyridin-3-yl)ethynyl)phenyl)-5-(3-methoxyphenyl)oxazolidin-2-one]
- EC50: > 1000 nM

Structure (SMILES): O=C1N[C@H](c2cncc(C#Cc3ccccn3)c2)[C@@H](c2cc(F)ccc2F)O1 [Example 189]
- EC50: > 1000 nM

Structure (SMILES): O=C1N[C@@H](c2cncc(C#Cc3ccccc3)c2)[C@@H](c2ccncn2)O1 (single isomer, unassigned) [Example 319]
- EC50: > 1000 nM

Structure (SMILES): O=C1N[C@H](c2cncc(C#Cc3ccccc3)c2)[C@@H](c2cccc(F)c2F)O1 [Example 277]
- EC50: < 100 nM and 21.5 nM

Structure (SMILES): Cc1cccc(C#Cc2cncc([C@H]3NC(=O)O[C@@H]3c3cc(F)ccc3F)c2)c1 [Example 387, (4R,5R)-5-(2,5-difluorophenyl)-4-(5-(m-tolylethynyl)pyridin-3-yl)oxazolidin-2-one]
- EC50: > 1000 nM

Structure (SMILES): O=C1N[C@@H](c2cccc(C#Cc3ccccc3F)n2)[C@H](c2ccccc2)O1 (single isomer, unassigned) [Example 15]
- EC50: > 1000 nM

Structure (SMILES): O=C1N[C@@H](c2cc(C#Cc3ccccc3)cnc2F)[C@H](c2ccccc2F)O1 (single isomer, unassigned) [Example 374]
- EC50: > 1000 nM

Structure (SMILES): O=C1N[C@H](c2cc(C#Cc3cncc(C4CC4)c3)cnc2F)[C@@H](c2ccc(F)cc2)O1 [Example 155, (4R,5R)-4-(5-((5-Cyclopropylpyridin-3-yl)ethynyl)-2-fluoropyridin-3-yl)-5-(4-fluorophenyl)oxazolidin-2-one]
- EC50: > 1000 nM

Structure (SMILES): O=C1N[C@H](c2cccc(C#Cc3ccccc3)c2)[C@@H](c2nc(-c3ccncc3)no2)O1 [Example 160]
- EC50: > 1000 nM

Structure (SMILES): O=C1N[C@H](c2ccnc(C#Cc3ccccc3)c2)[C@@H](c2cccnc2)O1 [Example 254]
- EC50: > 1000 nM

Structure (SMILES): Cc1ccc([C@H]2OC(=O)N[C@@H]2c2cccc(C#Cc3ccccc3)c2)cc1 [Example 107]
- EC50: < 100 nM

Structure (SMILES): C[C@@]1(c2cccc(F)c2)OC(=O)N[C@@H]1c1cncc(C#Cc2ccccc2)c1 [Example 224]
- EC50: > 1000 nM

Structure (SMILES): C[C@]1(c2ccccc2)OC(=O)N[C@@H]1c1cncc(C#Cc2ccccc2)c1 [Example 227]
- EC50: < 100 nM

Structure (SMILES): O=C1N[C@@H](c2nccc(C#Cc3ccccc3)n2)[C@H](c2cccc(F)c2)O1 [Example 274]
- EC50: > 1000 nM

Structure (SMILES): C[C@@]1(c2cncc(C#Cc3ccccc3)c2)NC(=O)O[C@@H]1c1ccccc1 [Example 225]
- EC50: > 1000 nM

Structure (SMILES): C[C@@]1(c2ccccc2)OC(=O)N[C@@H]1c1cncc(C#Cc2ccccc2)c1 [Example 228]
- EC50: > 1000 nM

Structure (SMILES): O=C1N[C@@H](c2cc(C#Cc3ccc(F)cc3)ccn2)[C@H](c2ccc(F)cc2)O1 (single isomer, unassigned) [Example 358]
- EC50: > 1000 nM

Structure (SMILES): O=C1N[C@H](c2cncc(C#Cc3ccccc3)c2)[C@H](c2ncco2)O1 (racemic) [Example 337, (±)-(4R,5R)-5-(Oxazol-2-yl)-4-(5-(phenylethynyl)pyridin-3-yl)oxazolidin-2-one]
- EC50: 100 to 1000 nM and 688 nM

Structure (SMILES): C[C@]1(c2cccc(C#Cc3ccccc3)n2)NC(=O)O[C@H]1c1ccccc1F (single isomer, unassigned) [Example 377]
- EC50: > 1000 nM

Structure (SMILES): COc1cccc([C@@H]2OC(=O)N[C@H]2c2cccc(C#Cc3ccc(C(F)(F)F)cc3)c2)c1 (stereo in doubt) [Example 120, (4S,5S)-5-(3-methoxyphenyl)-4-(3-((4-(trifluoromethyl)phenyl)ethynyl)phenyl)oxazolidin-2-one]
- EC50: > 1000 nM

Structure (SMILES): C[C@]1(c2cccc(F)c2)OC(=O)N[C@H]1c1cncc(C#Cc2ccccc2)c1 [Example 223]
- EC50: 100 to 1000 nM

Structure (SMILES): C[C@]1(c2cccc(F)c2)OC(=O)N[C@@H]1c1cncc(C#Cc2ccccc2)c1 [Example 222]
- EC50: < 100 nM

Structure (SMILES): COc1cccc([C@H]2OC(=O)N[C@@H]2c2cccc(C#Cc3cc(F)ccn3)c2)c1 [Example 193]
- EC50: < 100 nM

Structure (SMILES): O=C1N[C@H](c2cncc(C#Cc3ccccc3)c2)[C@@H](c2ccc(Cl)cc2)O1 (single isomer, unassigned) [Example 360]
- EC50: < 100 nM and 2 nM
